The subject of assay [1] is Aspergillus fumigatus. Description: Direct route: production of known and putative specialized metabolites under exogenous treatments, 25° C. (targeted LC-MS, bipartite network). Format: cell-based. The following applies: for broadcasting PageRank of the treatments: minimum-maximum normalized; for broadcasting PageRank of the treatments / node out-strength of the treatments (effect on triggering metabolite production): rank among treatments. The source says: (§1) Several examples of a bipartite network framework of treatments and metabolomic outputs will now be described. Bipartite networks are built to quantify the relationship between metabolites and the sources triggering their production, such as various exogenous biomolecules or compounds. As discussed above, a bipartite network (or graph) is a collection of nodes connected by lines named edges. The nodes represent the entities or elements of a system, and the edges represent the interaction or relationship amongst the features. For example, in cell metabolism, a metabolic network represents the biochemical reactions amongst substrates that result in products. The nodes of the metabolic network represent the substrates, and the edges represent the metabolic reactions amongst the substrates. For example, this framework can assess the effect of exogenous compounds on the production of specialized microbial metabolites. The nodes can be classified into two types: the treatments and the specialized metabolites, resulting in a bipartite network. The edges represent the magnitude of up- or down-regulation of specialized metabolites caused by the treatments compared to a controlled case (measured by the magnitude of log2 fold change using processed spectral data from targeted LC-MS analysis).
The bipartite network provides an in-depth quantification and clear visual representation of a treatment's ability to trigger the production of various specialized metabolites. Two routes are provided to assess specialized metabolite production using the bipartite network formulation, as shown in FIG. 15. The first is the direct route 1502 to determine the biosynthesis of known and putative metabolites, whereas the second is the auxiliary route 1504 to assess the production of unknown analytes. In the direct route 1502, the network nodes include treatments that elucidate known and putative metabolites by a microbe. Network centrality measurements 1506 are used to rank the treatments and the specialized metabolites. Those measurements can be used to identify the most influential nodes in the bipartite network. […] The treatments can be ranked based on their capability to trigger metabolite production, and the metabolites can be classified based on their popularity in being activated by various treatments. In the auxiliary route, the bipartite networks are built using analyte peaks extracted from post-processed spectral data. Further, the systems and methods of the present disclosure analyze the edges and neighborhoods of nodes to distinguish unique analytes among the total pool.
The bipartite network framework was used in this example to reveal the effect of various chitooligosaccharides and lipid treatments on triggering the production of specialized metabolites in Aspergillus fumigatus. Various chitooligosaccharides and lipids were applied as exogenous treatments since they are common constituents found in most fungi. Moreover, it has been previously shown that lipids influence fungal metabolomics; however, the impacts of chitooligosaccharides have remained unknown. In contrast, chitooligosaccharides are reported to have antifungal activity, which might potentially influence the metabolomic profile in Aspergillus species. This example highlights the influence of temperature on the production of specialized metabolites by conducting the experiments at 25 and 37° C. Aspergillus fumigatus is generally examined at 25° C. to explore the extent of its metabolomic capabilities or its lifestyle as a soilborne saprotroph that recycles environmental carbon and nitrogen. However, the fungus is also an opportunistic human pathogen and is commonly examined at 37° C. for its ability to cause aspergillosis, a lung disease found in immunocompromised patients. […]

Assay [2] relates to Aspergillus fumigatus. Description: Auxiliary route: untargeted analytes under the treatments, 37° C. Format: cell-based. The source says:
(§2) The auxiliary route follows an untargeted metabolomic profiling of the treatments. […] In the direct route, a peak area cutoff of 5×10^5 was used to detect signals with significant peaks between a treatment and solvent control. Although their peak area cutoff of 5×10^5 eliminates most noise, it is a linear cutoff and leaves some residual noise in the analysis due to column creep. Therefore, the dataset for the auxiliary route can be curated from the experimental study using baseline correction preprocessing tools. Following the processes defined by “Dynamics of Metabolite Induction in Fungal Co-cultures by Metabolomics at Both Volatile and Non-volatile Levels”, Front. Microbiol., 5 Feb. 2018 Sec. Antimicrobials, Resistance and Chemotherapy, Azzollini et al., peaks can be picked using GridMass and aligned using RANSAC alignment or another suitable alignment tool. Peak data can then be matched to known profiles in KEGG and LipidMap.
(§3) Peak significance was determined upon FCROS scoring. Non-significant analytes were not included in the network. An interactive map of the network illustrating the details of each analyte (m/z ratio, retention times, p-values, etc.) can be generated.
Considering the analytes from the network at 37° C. shown in FIG. 14D, twelve significant analyte peaks with log2 fold change intensities greater than 1 were extracted from the processed data. All three CO treatments at 37° C. triggered no shared analytes. Nor did the two lipid treatments trigger a shared analyte. Ten of the twelve analytes with log2 fold change intensities greater than 1 or less than −1 are uniquely triggered by a single treatment (i.e., analytes with node degree 1), as shown in FIG. 14D. Of the twelve significant extracted analyte peaks, eleven were identified from database queries. Analytes identified by KEGG were putative metabolites, hellebrigenin 3-acetate (ID 10), fraxetin (ID 16), beta-cyclopiazonate (ID 70), phenylbutazone (ID 71), borrerine (ID 89), clofibrate (ID 110), alangimarine (IDs 163 and 164), and sulindac (IDs 168 and 169). LipidMaps identified 6′-hydroxysiphonaxanthin decenoate (ID 21). […] There are no connections in ID numbers between the 25° C. and 37° C. experiments.

Assay [3] deals with Aspergillus fumigatus. The assay can be described thus: Auxiliary route: untargeted metabolomic profiling of the treatments, 25° C. (FCROS, bipartite network). It counts as cell-based.
Text: as §2, §3
The untargeted extraction of statistically relevant peaks using the auxiliary route can yield a significant number of analytes for potential exploration. The edges and neighbors of the nodes in the network can be used to determine which analytes to be first considered for targeted exploration. Analytes of particular interest express both […] depending on the treatment considered. Additionally, analytes of extreme up- and down-regulation can be of interest along with the node degree values of the analytes. FIG. 13D illustrates significant peaks with log2 fold change greater than 1 or less than −1. The total number of interactions (edges in the network) found with the auxiliary route is considerably higher compared to the network in the direct route. […] At 25 C, analytes ID 26 and ID 105 were matched to fraxetin via the KEGG database query. […] Analyte ID 222 was matched to ICAS #18 from the LipidMap database. […] At the same time, no single highly produced analyte is triggered by all three chitooligosaccharides.

Assay [4] concerns Aspergillus fumigatus. The assay can be described thus: Direct route: production of specialized metabolites under exogenous treatments, 37° C. Format: cell-based.
Text: as §1
The bipartite network provides an in-depth quantification and clear visual representation of a treatment's ability to trigger the production of various specialized metabolites. Two routes are provided to assess specialized metabolite production using the bipartite network formulation, as shown in FIG. 15. The first is the direct route 1502 to determine the biosynthesis of known and putative metabolites, whereas the second is the auxiliary route 1504 to assess the production of unknown analytes. In the direct route 1502, the network nodes include treatments that elucidate known and putative metabolites by a microbe. Network centrality measurements 1506 are used to rank the treatments and the specialized metabolites. […]

The test system of assay [5] is Aspergillus fumigatus. The following applies: 37° C.; cited from earlier work.

For `CC(=O)N[C@H]1[C@H](O[C@H]2[C@H](O)[C@@H](NC(C)=O)C(O)O[C@@H]2CO)O[C@H](CO)[C@@H](O[C@@H]2O[C@H](CO)[C@@H](O[C@@H]3O[C@H](CO)[C@@H](O)[C@H](O)[C@H]3NC(C)=O)[C@H](O)[C@H]2NC(C)=O)[C@@H]1O` (some centres unmarked) [CO4], in the assay on Aspergillus fumigatus [1], the “number of metabolites triggered” value is “six”, the “number of unique metabolites triggered” value is “two”, the “broadcasting PageRank of the treatments” value is recorded as “most effective treatment” and the “node out-strength of the treatments (effect on triggering metabolite production)” value (“node out-strength of the treatments” for short) is “highest effect on triggering metabolite production”. Also, in the assay with Aspergillus fumigatus [2], the “regulation of analyte 163” value was “downregulated” and the “regulation of analyte 168” value is reported as “downregulated”. Besides, in the assay with Aspergillus fumigatus [3], the “production of analyte 16” value is recorded as “significantly produced”. In the assay with Aspergillus fumigatus [4], the “effectiveness of treatment at triggering metabolite production (node strength and PageRank)” value (“effectiveness of treatment” below) is “poor at triggering the production of metabolites”.
Turning to `CC(=O)N[C@H]1[C@H](O[C@H]2[C@H](O)[C@@H](NC(C)=O)[C@H](O[C@H]3[C@H](O)[C@@H](NC(C)=O)C(O)O[C@@H]3CO)O[C@@H]2CO)O[C@H](CO)[C@@H](O[C@@H]2O[C@H](CO)[C@@H](O[C@@H]3O[C@H](CO)[C@@H](O)[C@H](O)[C@H]3NC(C)=O)[C@H](O)[C@H]2NC(C)=O)[C@@H]1O` (some centres unmarked) [CO5], the “number of unique metabolites triggered” value with Aspergillus fumigatus [1] is “one”. For the same compound, the “regulation of analyte ID 90” value in the assay with Aspergillus fumigatus [2] is “upregulated”. The “production of analyte 16” value with Aspergillus fumigatus [3] is given as “significantly produced”. The “regulation of fraxetin (analytes ID 26 and ID 105)” value in the assay with Aspergillus fumigatus [3] (log2 fold change greater than 1 or less than −1) is “upregulated”.
For the compound `CC(=O)N[C@H]1[C@H](O[C@H]2[C@H](O)[C@@H](NC(C)=O)[C@H](O[C@H]3[C@H](O)[C@@H](NC(C)=O)[C@H](O[C@H]4[C@H](O)[C@@H](NC(C)=O)C(O)O[C@@H]4CO)O[C@@H]3CO)O[C@@H]2CO)O[C@H](CO)[C@@H](O[C@@H]2O[C@H](CO)[C@@H](O[C@@H]3O[C@H](CO)[C@@H](O[C@@H]4O[C@H](CO)[C@@H](O[C@@H]5O[C@H](CO)[C@@H](O)[C@H](O)[C@H]5NC(C)=O)[C@H](O)[C@H]4NC(C)=O)[C@H](O)[C@H]3NC(C)=O)[C@H](O)[C@H]2NC(C)=O)[C@@H]1O` (some centres unmarked) [CO8], in the assay with Aspergillus fumigatus [1], the “broadcasting PageRank of the treatments” value is reported as “followed by CO8” and the “node out-strength of the treatments” value is listed as “minor influence on inducing metabolite production”. Further, the “regulation of analyte 163” value with Aspergillus fumigatus [2] was “upregulated”.
On to `CCCCCCCC/C=C\CCCCCCCC(=O)O` [oleic acid], for which, in the assay with Aspergillus fumigatus [1], the “number of metabolites triggered” value was “five”, the “number of unique metabolites triggered” value is “two” and the “node out-strength of the treatments” value is reported as “then oleic acid”. For the same compound, in the assay on Aspergillus fumigatus [1] (listed as Oleic acid), the “broadcasting PageRank of the treatments” value is “higher broadcasting PageRank value than CO5”. Moreover, the “regulation of analyte 168” value with Aspergillus fumigatus [2] was “downregulated”. In the assay with Aspergillus fumigatus [4], the “effectiveness of treatment” value is listed as “poor at triggering the production of metabolites”. In the assay with Aspergillus fumigatus [5], the germination entry is recorded as “inducer of germination”.
Turning to `CCCCCCCCCCCCCCCC(=O)O` [palmitic acid], in the assay on Aspergillus fumigatus [1], the “broadcasting PageRank of the treatments” value is on record as “least broadcasting PageRank measure” and the “node out-strength of the treatments” value is reported as “minor influence on inducing metabolite production”. For the same compound, in the assay with Aspergillus fumigatus [2], the “regulation of analyte 163” value was “upregulated”, the “regulation of analyte 168” value is on record as “upregulated” and the “regulation of analyte ID 90” value is “upregulated”. Besides, in the assay with Aspergillus fumigatus [3] (with respect to the control), the “regulation of ICAS #18 (analyte ID 222)” value is listed as “significantly down regulates”. The “effectiveness of treatment” value in the assay on Aspergillus fumigatus [4] is given as “most effective treatment on metabolite production”.
